According to publication PMC10302127 (Medicina, 2023):
In brackets after ≈: the same amount, converted by molar mass.

Columns and labels:
B. subtilis [1] = assay: Antibacterial disc diffusion; assay type: cell-based, Bacillus subtilis; conditions: B. subtilis (G + ve)
Procedure: (§1) The antibacterial activity of the synthesized compound was evaluated using the disc diffusion method in accordance with the clinical and laboratory standards institute’s recommendations. Molten Mueller–Hinton agar and Sabouraud dextrose agar media were inoculated with the inoculum at 35 ± 2 °C and then poured into a Petri dish (90 mm). Each sample was soaked on 6 mm absorbent discs in dimethyl sulfoxide (DMSO) and placed on the inoculation plates. After 2 h at 4 °C, the plates were incubated at 35 ± 2 °C for 18–20 h. The inhibition zone diameters were determined. Positive control discs of selected antibiotics were included in each assay; inhibition zones were compared to the reference discs. Negative controls were treated with DMSO, and the assays were performed in triplicate.

P. aeruginosa [2] = assay: Antibacterial disc diffusion; assay type: cell-based, Pseudomonas aeruginosa; conditions: P. aeruginosa (G − ve)
Procedure: as §1

S. aureus = assay: Antibacterial disc diffusion; assay type: cell-based; conditions: S. aureus (G + ve) in Table 2, disc diffusion
Procedure: as §1

S. typhi = assay: Antibacterial disc diffusion; assay type: cell-based, Salmonella typhi; conditions: S. typhi (G − ve)
Procedure: as §1

E. coli [3] = assay: Antibacterial disc diffusion; assay type: cell-based, Escherichia coli; conditions: E. coli (G − ve)
Procedure: as §1

five bacterial pathogens = assay: Antibacterial disc diffusion, statements on groups of bacteria; assay type: cell-based
Procedure: as §1

brine shrimp nauplii = assay: Brine shrimp lethality bioassay; conditions: 24 and 48 h
Procedure: Vials A, B, C, and D contained 4, 8, 16, and 32 μL of material. Each vial received 10 brine shrimp nauplii at […]. Ten nauplii in 5 mL saltwater were used for a control test. The vials were incubated at room temperature for 24–48 h. After incubation, the vials were magnified and counted to determine how many survived. Each concentration has an average nauplii mortality rate.

B. subtilis [4] = assay: MIC and MBC microdilution; conditions: Bacillus subtilis
Procedure: (§3) Microdilution techniques were employed to calculate the minimum inhibitory concentration (MIC) and the minimum bactericidal concentration (MBC). […] After solidification, the medium incorporated was seeded from suspensions of bacteria at a concentration of 0.5 McFarland standard (1.0 × 10^8 CFU/mL). After 18–20 h of incubation at 35 ± 2 °C, the absence or presence of microbial growth in Petri dishes was determined by examination with the naked eye. […] All compounds were evaluated three times against each microorganism.

B. cereus = assay: MIC and MBC microdilution; conditions: Bacillus cereus
Procedure: as §3

P. aeruginosa [5] = assay: MIC and MBC microdilution; conditions: Pseudomonas aeruginosa
Procedure: as §3

S.typhi = assay: MIC and MBC microdilution; conditions: Salmonella enterica
Procedure: as §3

Aspergillus flavus = assay: Mycelial growth inhibition, poisoned food method; assay type: cell-based; conditions: 20 μg/μL in DMSO
Procedure: (§2) The potato dextrose agar (PDA)-based antifungal experiment was screened using the food poisoning approach. Sterilized 70 mm glass Petri dishes were filled with 20 mL melted PDA (45 °C). After the medium solidified, sterilized needles placed small amounts of mycelia from the two fungal pathogens in the center of each plate. […] After 48 h at 37 °C, mycelial growth was measured.

E. coli [6] = assay: MIC and MBC microdilution; conditions: Escherichia coli
Procedure: as §3

Bacillus cereus = assay: Antibacterial disc diffusion; assay type: cell-based; conditions: as named in text
Procedure: as §1

Aspergillus niger = assay: Mycelial growth inhibition, poisoned food method; assay type: cell-based; conditions: for Millimeters of Fungal Mycelial Growth Inhibition in DMSO (20 μg/μL): Aspergillus niger, 20 μg/μL in DMSO
Procedure: as §2

[7] = tested on: EAC (Ehrlich ascites carcinoma) cells; assay: MTT assay, antiproliferative activity; assay type: cell-based, Swiss albino mouse
Procedure: Ehrlich ascites carcinoma (EAC) cells were cultivated in conventional DMEM from a Swiss albino mouse bearing a tumor [45]. A 96-well flat-bottomed cell culture plate with 2 × 10^4 cells in 100 μL was incubated at 37 °C in a CO2 incubator for 24 h. Controls were three wells of untreated EAC cells in DMEM. […] After removing the aliquot, 10 mM PBS and 20 μL of MTT reagent (5 mg/mL MTT in PBS) were added. After another 8 h at 37 °C, the aliquot was drained, and acidic isopropanol (200 μL) was added. Absorbance values at 570 nm were recorded after another 30 min CO2 incubator incubation. The following formula was used to estimate cell proliferation incubation:Proliferation inhibition ratio (%) = (A − B) × 100/A where A and B represent the cellular homogenate OD570 nm from control wells and compound 6-treated wells, respectively.

CC[C@H]1OC(=O)[C@H](C)[C@@H](O[C@H]2C[C@@](C)(OC)[C@@H](O)[C@H](C)O2)[C@H](C)[C@@H](O[C@@H]2O[C@H](C)C[C@H](N(C)C)[C@H]2O)[C@](C)(O)C[C@@H](C)CN(C)[C@H](C)[C@@H](O)[C@]1(C)O [Azithromycin, reference compound]
Diameter of Inhibition Zones (B. subtilis [1]): ** 18 ± 0.10 mm | Diameter of Inhibition Zones (P. aeruginosa [2]): ** 15 ± 0.10 mm | Diameter of Inhibition Zones (S. aureus): ** 17 ± 0.50 mm | Diameter of Inhibition Zones (S. typhi): ** 18 ± 0.90 mm | Diameter of Inhibition Zones (E. coli [3]): ** 17 ± 0.50 mm

O=c1ccn([C@@H]2O[C@H](CO)[C@@H](O)[C@H]2O)c(=O)[nH]1 [Compound 1, uridine, reference compound]
activity against Gram-positive organisms (five bacterial pathogens): inactive | inhibition among all bacterial types (five bacterial pathogens): no inhibition

CCCCCCCCCCCCCCCC(=O)OC[C@H]1O[C@@H](n2ccc(=O)[nH]c2=O)[C@H](O)[C@@H]1O [Compound 2, 5′-Oxo-palmitoyluridine]
activity against Gram-positive organisms (five bacterial pathogens): inactive | inhibition among all bacterial types (five bacterial pathogens): no inhibition | death (brine shrimp mortality) (brine shrimp nauplii): 31.21%

CCCCCCCCCCCCCCCC(=O)OCC1OC(n2ccc(=O)[nH]c2=O)C(OC(=O)CCCCCCCCCCC)C1OC(=O)CCCCCCCCCCC (centres unmarked) [Compound 3, 2′,3′-Di-oxo-lauroyl-5′-oxo-palmitoyluridine]
activity against Gram-positive organisms (five bacterial pathogens): inactive | inhibition against the Gram-negative bacteria P. aeruginosa and S. typhi (five bacterial pathogens): reasonable inhibition | death (brine shrimp mortality) (brine shrimp nauplii): 48.24–49.28% | Diameter of Inhibition Zones (S. typhi): * 11.0 ± 0.0 mm

CCCCCCCCCCCCCCCC(=O)OCC1OC(n2ccc(=O)[nH]c2=O)C(OC(=O)CCCCCCCCCCCCC)C1OC(=O)CCCCCCCCCCCCC (centres unmarked) [Compound 4, 2′,3′-Di-oxo-myristoyl-5′-oxo-palmitoyluridine]
MBC (B. subtilis [4]): 8 µg/mL (≈ 8.86 µM) | MIC (B. subtilis [4]): 4 µg/mL (≈ 4.43 µM) | MIC (B. cereus): 0.13 µg/mL (≈ 0.144 µM) | MBC (P. aeruginosa [5]): 16 µg/mL (≈ 17.7 µM) | MIC (P. aeruginosa [5]): 0.5 µg/mL (≈ 0.554 µM) | MBC (S.typhi): 16 µg/mL (≈ 17.7 µM) | MIC (S.typhi): 0.5 µg/mL (≈ 0.554 µM) | inhibition against the Gram-negative bacteria P. aeruginosa and S. typhi (five bacterial pathogens): reasonable inhibition | Millimeters of Fungal Mycelial Growth Inhibition in DMSO (20 μg/μL) (Aspergillus flavus): 31 ± 0.15 Millimeters | MIC (E. coli [6]): 0.5 µg/mL (≈ 0.554 µM) | Diameter of Inhibition Zones (P. aeruginosa [2]): 7 ± 0.25 mm | death (brine shrimp mortality) (brine shrimp nauplii): 48.24–49.28% | inhibition zone (Bacillus cereus): 15 ± 0.50 mm | Diameter of Inhibition Zones (S. aureus): * 15 ± 0.50 mm

CCCCCCCCCCCCCCCC(=O)OCC1OC(n2ccc(=O)[nH]c2=O)C(OC(c2ccccc2)(c2ccccc2)c2ccccc2)C1OC(c1ccccc1)(c1ccccc1)c1ccccc1 (centres unmarked) [Compound 5, 5′-oxo-Palmitoyl-2′,3′-di-oxo-trityluridine]
MBC (B. subtilis [4]): 8 µg/mL (≈ 8.27 µM) | MIC (B. subtilis [4]): 0.5 µg/mL (≈ 0.517 µM) | MIC (B. cereus): 1 µg/mL (≈ 1.03 µM) | MBC (B. cereus; B. cereus): 16 µg/mL (≈ 16.5 µM) | MBC (S.typhi): 8 µg/mL (≈ 8.27 µM) | MIC (S.typhi): 0.5 µg/mL (≈ 0.517 µM) | Millimeters of Fungal Mycelial Growth Inhibition in DMSO (20 μg/μL) (Aspergillus flavus): * 66 ± 0.39 Millimeters | inhibition of A. niger (Aspergillus niger): 64 ± 0.44% | Millimeters of Fungal Mycelial Growth Inhibition in DMSO (20 μg/μL) (Aspergillus niger): * 64 ± 0.44 Millimeters | MIC (E. coli [6]): 4 µg/mL (≈ 4.14 µM) | MBC (E. coli [6]; E. coli): 8 µg/mL (≈ 8.27 µM) | death (brine shrimp mortality) (brine shrimp nauplii): 34.25% | inhibition zone (Bacillus cereus): 16 ± 0.20 mm | Diameter of Inhibition Zones (S. aureus): * 16 ± 0.20 mm | Diameter of Inhibition Zones (S. typhi): * 12 ± 0.25 mm

CCCCCCCCCCCCCCCC(=O)OC[C@H]1O[C@@H](n2ccc(=O)[nH]c2=O)[C@H](OC(=O)C=Cc2ccccc2)[C@@H]1OC(=O)C=Cc1ccccc1 [Compound 6, 2′,3′-Di-oxo-cinnamoyl-5′-oxo-palmitoyluridine]
cytotoxicity effects ([7]; 15.625 µg/mL): 3.11% | cytotoxicity effects ([7]; 31.25 µg/mL): 4.41% | cytotoxicity effects ([7]; 62.25 µg/mL (62.5 in Figure 5)): 5.41% | cytotoxicity effects ([7]; 125 µg/mL): 7.51% | cytotoxicity effects ([7]; 250 µg/mL): 14.02% | cytotoxicity effects ([7]; 500 µg/mL): 23.22% | IC50 ([7]; Mus musculus, Ehrlich, MTT): > 500 µg/mL | activity against Gram-positive organisms (five bacterial pathogens): inactive | inhibition among all bacterial types (five bacterial pathogens): no inhibition | Millimeters of Fungal Mycelial Growth Inhibition in DMSO (20 μg/μL) (Aspergillus flavus): 53 ± 0.33 Millimeters | inhibition of A. niger (Aspergillus niger): 72 ± 0.95% | Millimeters of Fungal Mycelial Growth Inhibition in DMSO (20 μg/μL) (Aspergillus niger): * 72 ± 0.95 Millimeters

CCCCCCCCCCCCCCCC(=O)OC[C@H]1O[C@@H](n2ccc(=O)[nH]c2=O)[C@H](OC(=O)c2ccc(C(C)(C)C)cc2)[C@@H]1OC(=O)c1ccc(C(C)(C)C)cc1 [Compound 7, 2′,3′-Di-oxo-(4-t-butylbenzoyl)-5′-oxo-palmitoyluridine]
activity against Gram-positive organisms (five bacterial pathogens): inactive | inhibition against the Gram-negative bacteria P. aeruginosa and S. typhi (five bacterial pathogens): reasonable inhibition | Millimeters of Fungal Mycelial Growth Inhibition in DMSO (20 μg/μL) (Aspergillus flavus): * 63 ± 0.10 Millimeters | inhibition of A. niger (Aspergillus niger): 66 ± 0.41% | Millimeters of Fungal Mycelial Growth Inhibition in DMSO (20 μg/μL) (Aspergillus niger): * 66 ± 0.41 Millimeters | death (brine shrimp mortality) (brine shrimp nauplii): 33.71% | Diameter of Inhibition Zones (S. typhi): 9 ± 0.00 mm

C[C@@H]1[C@H](O)[C@@H](C)/C=C/C=C/CC/C=C/C=C/C=C/C=C/C(O[C@H]2O[C@H](C)[C@@H](O)[C@H](N)[C@@H]2O)CC2O[C@](O)(CC(O)C(O)CCC(O)CC(O)CC(O)CC(=O)O[C@H]1C)CC(O)C2C(=O)O (some centres unmarked) [Nystatin, reference compound]
Millimeters of Fungal Mycelial Growth Inhibition in DMSO (20 μg/μL) (Aspergillus flavus): 61 ± 0.00 Millimeters | inhibition of A. niger (Aspergillus niger): 59 ± 0.00% | Millimeters of Fungal Mycelial Growth Inhibition in DMSO (20 μg/μL) (Aspergillus niger): 59 ± 0.00 Millimeters
